Among the data in US12612379B2, “Inhibitors of APOL1 and methods of using same” (Vertex Pharmaceuticals Incorporated, priority 2021, dated 2026) are IC50 values, retold here.

SMILES strings stand for the structures.

This experiment addresses T1, APOL1 (tet-inducible transgenic APOL1 T-REx-HEK293 cell lines) (Homo sapiens, UniProt O14791).
T1 sequence (O14791 1-398 S342G/I384M): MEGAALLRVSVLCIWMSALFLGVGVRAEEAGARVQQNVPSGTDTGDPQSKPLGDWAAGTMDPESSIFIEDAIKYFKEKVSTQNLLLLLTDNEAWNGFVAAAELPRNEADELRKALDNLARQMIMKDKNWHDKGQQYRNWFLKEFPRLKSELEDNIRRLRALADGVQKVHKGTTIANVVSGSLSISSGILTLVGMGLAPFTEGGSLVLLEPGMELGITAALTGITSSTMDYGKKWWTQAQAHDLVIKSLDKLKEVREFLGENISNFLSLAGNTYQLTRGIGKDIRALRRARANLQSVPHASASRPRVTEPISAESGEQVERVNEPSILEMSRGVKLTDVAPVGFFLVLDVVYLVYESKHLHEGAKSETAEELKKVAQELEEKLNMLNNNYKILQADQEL
Briefly: MultiTox-Fluor Multiplex Cytotoxicity Assay for APOL1 inhibitor properties. To be noted: APOL1 induced with 50 ng/mL tet, 24 hours with compound, ratio of dead to live cells, top concentration 10 μM; APOL1 variant (G0/G1/G2) not stated; read-out: IP50 (nM) (i.e., IC50 for cell proliferation). The class given is cell-based. The method, then:
The MultiTox-Fluor Multiplex Cytotoxicity Assay is a single-reagent-addition, homogeneous, fluorescence assay that measures the number of live and dead cells simultaneously in culture wells. The assay measures cell viability and cytotoxicity by detecting two distinct protease activities. The live-cell protease activity is restricted to intact viable cells and is measured using a fluorogenic, cell-permeant peptide glycyl-phenylalanylamino fluorocoumarin (GF-AFC) substrate. The substrate enters intact cells, where it is cleaved to generate a fluorescent signal proportional to the number of living cells. […] A second, cell-impermeant, fluorogenic peptide substrate (bis-AAF-R110 Substrate) is used to measure dead-cell protease that has been released from cells that have lost membrane integrity. A ratio of dead to live cells is used to normalize data.
Briefly, the tet-inducible transgenic APOL1 T-REx-HEK293 cell lines were incubated with 50 ng/mL tet to induce APOL1 in the presence of 3-(2-(4-fluorophenyl)-1H-indol-3-yl)-N-((3S,4R)-4-hydroxy-2-oxopyrrolidin-3-yl)propenamide at 10.03, 3.24, 1.13, 0.356, 0.129, 0.042, 0.129, 0.0045, 0.0015, 0.0005 μM in duplicate for 24 hours in a humidified 37° C. incubator. The MultiTox reagent was added to each well and placed back in the incubator for an additional 30 minutes. The plate was read on the EnVision plate reader. A ratio of dead to live cells was used to normalize, and data was imported, analyzed, and fit using Genedata Screener (Basel, Switzerland) software. Data was normalized using percent of control, no tet (100% viability), and 50 ng/mL tet treated (0% viability), and fit using Smart Fit. The reagents, methods, and complete protocol for the MultiTox assay are described below.
Human embryonic kidney (HEK293) cell lines containing a tet-inducible expression system (T-REx™; Invitrogen, Carlsbad, CA) and Adeno-associated virus site 1 pAAVS1-Puro-APOL1 G0 or pAAVS1-Puro-APOL1 G1 or pAAVS1-Puro-APOL1 G2 Clones G0 DC2.13, G1 DC3.25, and G2 DC4.44 were grown in a T-225 flask at ˜90% confluency in cell growth media (DMEM, 10% Tet-free FBS, 2 mM L-glutamine, 100 Units/mL penicillin-streptomycin, 5 μg/mL blasticidin S HCl, 1 μg/mL puromycin dihydrochloride). Cells were washed with DPBS and then trypsinized to dissociate from the flask. Media was used to quench the trypsin, cells were then pelleted at 200 g and resuspended in fresh cell assay media (DMEM, 2% Tet-free FBS, 2 mM L-glutamine, 100 Units/mL penicillin-streptomycin). Cells were counted and diluted to 1.17×10^6 cells/mL. 20 μL of cells (23,400/well) were dispensed in every well of a 384-well Poly-D-Lysine coated plate using the Multidrop dispenser. The plates were then incubated at room temperature for one hour.
Tetracycline is needed to induce APOL1 expression. 1 mg/mL tet stock in water was diluted to 250 ng/mL (5×) in cell assay media. 60 μL of cell assay media (no tet control) was dispensed in columns 1 and 24, and 60 μL of 5×tet in 384-PP-round bottom plate was dispensed in columns 2 to 23 with the Multidrop dispenser.
Assay ready plates from the Global Compound Archive were ordered using template 384_APOL1Cell_DR10n2_50 uM_v3. Compounds were dispensed at 200 nL in DMSO. The final top concentration was 10 μM with a 10 point 3-fold dilution in duplicate in the MultiTox assay.
20 μL was transferred from the 5×tet plate to the ARP and mixed, then 5 μL of 5×tet and the compounds were transferred to the cell plate and mixed using the Bravo. The cell plate was placed in the humidified 37° C. 5% CO2 incubator for 24 hours.
The MultiTox-Fluor Multiplex Cytotoxicity Assay was performed in accordance with the manufacturer's protocol. After cells were incubated with tet and compound for 24 hours, 25 μL of 1×MultiTox reagent was added to each well using the Multidrop dispenser; the plates were placed on a plate shaker (600 rpm) for 2 minutes, then centrifuged briefly and placed back in the 37° C. incubator for 30 minutes. […]
Take `C[C@H]1C[C@@](O)(c2ccc3c(c2)C2(CCO3)CC2)C[C@@H](c2cn(C)nn2)N1` [Compound 32]: the IC50 lay in the range of 50 to 500 nM.

With `C[C@H]1C[C@@](O)(c2ccc(Cl)nc2)C[C@@H](c2cn(C)nn2)N1` [Compound 17], the IC50 lay in the range of 50 to 500 nM. As to `C[C@H]1C[C@@](C(N)=O)(c2ccc(C(F)(F)F)cc2)C[C@@H](c2cn(C)nn2)N1` [Compound 67, (2S,4S,6S)-2-methyl-6-(1-methyl-1H-1,2,3-triazol-4-yl)-4-(4-(trifluoromethyl)phenyl)piperidine-4-carboxamide], the IC50 was 50 to 500 nM. `C[C@H]1C[C@@](O)(c2ccc(C(F)(F)F)c(OC(F)(F)F)c2)C[C@@H](c2cn(C)nn2)N1` [Compound 50]: the IC50 was ≤ 50 nM. In the case of `Cc1cc([C@@]2(O)C[C@@H](c3cn(C)nn3)N[C@@H](C)C2)ccc1C(F)(F)F` [Compound 34], the IC50 was ≤ 50 nM. With `C[C@H]1C[C@@](O)(c2cccc(C(F)(F)F)c2)C[C@@H](c2cn(C)nn2)N1` [Compound 48], the IC50 was 50 to 500 nM. Turning to `C[C@H]1C[C@@](O)(c2ccc(C(F)(F)F)c(O)c2)C[C@@H](c2cn(C)nn2)N1` [Compound 43], the IC50 is ≤ 50 nM.

For the compound `C[C@H]1C[C@@](O)(c2ccc3cn[nH]c3c2)C[C@@H](c2cn(C)nn2)N1` [Compound 52], the IC50 is ≤ 50 nM. Consider `C[C@H]1C[C@@](O)(c2ccc(C(F)(F)C(F)(F)F)cc2)C[C@@H](c2cn(C)nn2)N1` [Compound 47], for which the IC50 is ≤ 50 nM. Consider `COc1cc([C@]2(O)C[C@H](C)N(C)[C@H](c3cn(C)nn3)C2)ccc1C(F)(F)F` [Compound 42], for which the IC50 is 50 to 500 nM. Then `C[C@H]1C[C@@](C(N)=O)(c2ccc(Cl)cn2)C[C@@H](c2cn(C)nn2)N1` [Compound 64], with ≥ 500 nM.

Turning to `C[C@H]1C[C@@](O)(c2ccc3c(c2)OCC3)C[C@@H](c2cn(C)nn2)N1` [Compound 53], the IC50 was ≥ 500 nM.

Consider `Cc1cccc([C@@]2(O)C[C@@H](c3cn(C)nn3)N[C@@H](C)C2)c1` [Compound 6], for which the IC50 is 50 to 500 nM.

For `C[C@H]1C[C@@](O)(c2ccc(SC3CC3)cc2)C[C@@H](c2cn(C)nn2)N1` [Compound 49], the IC50 lay within 50 to 500 nM. On to `C[C@H]1C[C@@](O)(c2ccc3c(c2)CCC3(F)F)C[C@@H](c2cn(C)nn2)N1` [Compound 41], for which the IC50 is < 10000 nM. As to `Cc1cc(Cl)ccc1[C@@]1(O)C[C@@H](c2cn(C)nn2)N[C@@H](C)C1` [Compound 21], the IC50 was 50 to 500 nM. For `COc1cc([C@@]2(O)C[C@@H](c3cn(C)nn3)N[C@@H](C)C2)ccc1Cl` [Compound 19], the IC50 was ≤ 50 nM. Then `C[C@H]1C[C@@](O)(c2ccc(C(F)(F)F)c(C(F)(F)F)c2)C[C@@H](c2cn(C)nn2)N1` [Compound 51], with ≤ 50 nM. Next, `C[C@H]1C[C@@](O)(c2ccc3c(c2)CC(C)(C)O3)C[C@@H](c2cn(C)nn2)N1` [Compound 31]: ≥ 500 nM.

On to `C[C@H]1C[C@@](O)(c2ccc(C#N)cc2)C[C@@H](c2cn(C)nn2)N1` [Compound 30], for which the IC50 is 50 to 500 nM. As to `C[C@H]1C[C@@](O)(c2ccc(C3CC3)cc2)C[C@@H](c2cn(C)nn2)N1` [Compound 29], the IC50 was ≤ 50 nM. With `C[C@H]1C[C@@](O)(c2ccc3nnn(C)c3c2)C[C@@H](c2cn(C)nn2)N1` [Compound 57], the IC50 was ≥ 500 nM. With `C[C@H]1C[C@@](O)(c2ccc(Cl)c(C(=O)N(C)C)c2)C[C@@H](c2cn(C)nn2)N1` [Compound 24], the IC50 is 50 to 500 nM. As for `C[C@H]1C[C@@](O)(c2ccc3cnn(C)c3c2)C[C@@H](c2cn(C)nn2)N1` [Compound 58], the IC50 was ≤ 50 nM. Consider `C[C@H]1C[C@@](O)(c2ccc(Cl)cc2F)C[C@@H](c2cn(C)nn2)N1` [Compound 22], for which the IC50 is ≤ 50 nM. Consider `Cc1cc([C@@]2(O)C[C@@H](c3cn(C)nn3)N[C@@H](C)C2)ccc1Cl` [Compound 26], for which the IC50 is ≤ 50 nM. Next, `C[C@H]1C[C@@](O)(c2ccc(C(F)(F)F)c(Cl)c2)C[C@@H](c2cn(C)nn2)N1` [Compound 36]: ≤ 50 nM; `Cc1cc([C@@]2(O)C[C@@H](c3cn(C)nn3)N[C@@H](C)C2)ccc1F` [Compound 12]: 50 to 500 nM; `C[C@H]1C[C@@](O)(c2ccc3c(c2)nnn3C)C[C@@H](c2cn(C)nn2)N1` [Compound 55]: ≥ 500 nM. `C[C@H]1C[C@@](O)(c2ccc(C(F)F)cc2)C[C@@H](c2cn(C)nn2)N1` [Compound 38]: the IC50 is ≤ 50 nM. In the case of `C[C@H]1C[C@@](O)(c2cc(F)cc(Cl)c2)C[C@@H](c2cn(C)nn2)N1` [Compound 10], the IC50 lay in the range of 50 to 500 nM. As for `C[C@H]1C[C@@](O)(c2ccc(Cl)c(OC(F)(F)F)c2)C[C@@H](c2cn(C)nn2)N1` [Compound 23], the IC50 is ≤ 50 nM. With `C[C@H]1C[C@@](O)(c2cccc(Cl)c2)C[C@@H](c2cn(C)nn2)N1` [Compound 3], the IC50 is 50 to 500 nM. For the compound `CC1CC(O)(c2cccc(Cl)c2)CC(c2cnn(CCS(C)(=O)=O)c2)N1` (centres unmarked) [Compound 2], the IC50 lay in the range of 50 to 500 nM. Take `CC1CC(O)(c2ccc(C(F)(F)F)cc2)CC(c2c[nH]nn2)N1` (centres unmarked) [Compound 62, 2-methyl-6-(1H-triazol-4-yl)-4-[4-(trifluoromethyl)phenyl]piperidin-4-ol]: the IC50 is ≤ 50 nM.

Regarding `Cc1ccc([C@@]2(O)C[C@@H](c3cn(C)nn3)N[C@@H](C)C2)cc1` [Compound 5], the IC50 was 50 to 500 nM. For the compound `C[C@H]1C[C@@](O)(c2ccc(F)c(Cl)c2)C[C@@H](c2cn(C)nn2)N1` [Compound 9], the IC50 lay in the range of 50 to 500 nM.

As to `C[C@H]1C[C@@](O)(c2ccc(C(C)(F)F)cc2)C[C@@H](c2cn(C)nn2)N1` [Compound 39], the IC50 is ≤ 50 nM. For the compound `C[C@H]1C[C@@](O)(c2ccc(C(F)(F)F)c(F)c2)C[C@@H](c2cn(C)nn2)N1` [Compound 25], the IC50 was ≤ 50 nM. For the compound `C[C@H]1C[C@@](O)(c2ccc(Br)cc2)C[C@@H](c2cn(C)nn2)N1` [Compound 27], the IC50 is ≤ 50 nM.

On to `Cc1ccc([C@@]2(O)C[C@@H](c3cn(C)nn3)N[C@@H](C)C2)cc1F` [Compound 11], for which the IC50 lay within 50 to 500 nM. Next, `Cc1nn(C)c2ccc([C@@]3(O)C[C@@H](c4cn(C)nn4)N[C@@H](C)C3)cc12` [Compound 59]: 50 to 500 nM; `C[C@H]1C[C@@](O)(c2ccc3c(cnn3C)c2)C[C@@H](c2cn(C)nn2)N1` [Compound 56]: ≥ 500 nM; `C[C@H]1C[C@@H](c2ccc(C(F)(F)F)cc2)C[C@@H](c2cn(C)nn2)N1` [Compound 66, (2S,4R,6S)-2-methyl-6-(1-methyltriazol-4-yl)-4-[4-(trifluoromethyl)phenyl]piperidine]: 50 to 500 nM.
